Measured values from patent US20180353462A1, “[…] AGENTS […] FLAVONOID DERIVATIVES TARGETING KINASES, SIRTUINS AND ONCOGENIC AGENTS FOR THE TREATMENT OF CANCERS” (priority 2015, published 2018).
“And” between values parts separate entries of the source, which are not always exact repeats. Identical values can stand only once. Like-named read-outs stand apart in the source and are kept apart here.

What was measured:
MV4-11 (Leukemia) = assay: WST-1 anticancer cell proliferation assay, MV4-11; assay type: cell-based; conditions: Table 4; read-out: Acute Myeloid Leukemia cell lines MV4-11 IC50
Method: (§1) Anticancer activity was tested against several standard cancer cell lines including brain, breast, Kaposi sarcoma, leukemia, lung, melanoma, tenosynovial giant cell tumor, ovarian, pancreatic, colon and prostate cancer. Cells were trypsinized and plated into 96 well plates in 50 μl of media and incubated overnight. The next day approximately 18 hours after plating, 50 μl of media containing the required flavonoid-based pharmaceutical composition was added per well. Cells were plated at a density so that 72 hours post drug addition, the cells will be in log phase (500)-2000 cells/well). The compounds and extracts were solubilized in Dimethyl sulfoxide (DMSO). The cells are allowed to proliferate for 72 hours 37° C. in humidified atmosphere of 5% CO2. The experiment is terminated using WST-1 (Roche®) 10 μl per well and absorbance is read at 450 nm %690 nm. The effect of drugs on growth is assessed as percent of cell viability. The IC50 values were determined from the extract dose versus control growth curves using Graphpad Prism® software. All experiments were carried out in duplicate and the mean results determined.

MV4-11 AML = assay: In-vivo efficacy on MV4-11 AML (mice with FLT3-mutated acute myeloid leukemia); conditions: mouse
From the text: The results of the anticancer activity are presented in Tables 3 and 4 (above) and in FIG. 6, Hela cells shown at (A) and CMK cells at (B) and MV4-11 and MOLT-14 acute myeloid leukemia cells.

[1] = Toxicity and safety screen, in vitro profiling
From the text: This family of AML-therapeutic targets likewise has the flavone backbone (2-phenyl-1,4-benzopyrone) chemical structure, in this case more defined as shown below (see also FIG. 1B), or any pharmaceutically acceptable salt thereof: […]

[2] = system: THP-1 acute myeloid leukemia cell line; assay: WST-1 anticancer cell proliferation assay, THP-1; assay type: cell-based; conditions: Table 4; read-out: Acute Myeloid Leukemia cell lines THP-1 IC50
Method: as §1

[3] = system: MOLM-14 acute myeloid leukemia cell line; assay: WST-1 anticancer cell proliferation assay, MOLM-14; assay type: cell-based; conditions: Table 4, read-out: Acute Myeloid Leukemia cell lines MOLM-14 IC50
Method: as §1

Normal Bone marrow = assay: Cell viability, normal bone marrow; assay type: cell-based; conditions: Table 4
Method: as §1, with “Bioactivity of the above-described compounds has been verified by an anticancer cell proliferation assay using the WST-1 (4-[3-(4-iodophenyl)-2-(4-nitrophenyl)-2H-5-tetrazolio]-1, 3-benzene disulfonate) colorimetric assay by Roche Life Sciences®. Anticancer” for “Anticancer”

[4] = system: 60 cancer cell line panel; conditions: US National Cancer Institute 60 cancer cell line panel, NSC:719330; cited from earlier work
FLT3(ITD) = biological target: T1, FLT3(ITD) (Homo sapiens, UniProt P36888); assay type: binding; conditions: Table 4; read-out: Acute Myeloid Leukemia Kinases FLT3-ITD IC50
T1 construct: In general, full-length constructs were used for small, single domain kinases, and catalytic domain constructs for large multi-domain kinases; fused on or other part: T7 phage fusion or DNA tag for qPCR detection (general statement)
T1 sequence (P36888 1-993): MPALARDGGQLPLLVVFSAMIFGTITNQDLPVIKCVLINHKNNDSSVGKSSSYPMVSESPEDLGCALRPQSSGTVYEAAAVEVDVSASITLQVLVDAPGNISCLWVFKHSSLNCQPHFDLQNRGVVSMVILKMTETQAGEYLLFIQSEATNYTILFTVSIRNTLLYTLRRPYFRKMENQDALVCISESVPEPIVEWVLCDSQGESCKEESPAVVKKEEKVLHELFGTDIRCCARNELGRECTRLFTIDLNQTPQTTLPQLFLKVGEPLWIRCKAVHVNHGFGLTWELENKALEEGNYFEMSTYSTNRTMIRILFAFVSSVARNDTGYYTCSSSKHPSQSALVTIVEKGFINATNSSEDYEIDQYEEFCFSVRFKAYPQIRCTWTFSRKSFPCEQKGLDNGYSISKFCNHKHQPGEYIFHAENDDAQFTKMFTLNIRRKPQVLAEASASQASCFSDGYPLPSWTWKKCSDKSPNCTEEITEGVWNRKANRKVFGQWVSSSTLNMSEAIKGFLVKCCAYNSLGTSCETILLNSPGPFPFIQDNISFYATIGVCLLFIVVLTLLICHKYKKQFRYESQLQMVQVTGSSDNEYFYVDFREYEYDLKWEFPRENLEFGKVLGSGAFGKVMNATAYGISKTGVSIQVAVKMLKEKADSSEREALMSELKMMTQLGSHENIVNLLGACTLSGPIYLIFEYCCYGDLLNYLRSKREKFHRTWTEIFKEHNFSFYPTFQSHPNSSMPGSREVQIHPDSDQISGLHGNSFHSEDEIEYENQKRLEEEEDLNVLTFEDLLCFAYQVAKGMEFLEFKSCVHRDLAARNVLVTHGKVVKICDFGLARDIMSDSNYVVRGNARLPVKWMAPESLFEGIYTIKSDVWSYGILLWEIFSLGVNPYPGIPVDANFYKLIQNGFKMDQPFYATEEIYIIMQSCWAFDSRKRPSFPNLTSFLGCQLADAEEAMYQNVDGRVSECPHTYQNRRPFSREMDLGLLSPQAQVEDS
Method: (§2) Cannabis flavonoids and their analogs were subjected to kinase inhibition assay. The compounds were first screened at a single concentration of 10 μM in the primary assay. […] To determine the kd or IC50 values, competition binding assays were established, authenticated and executed as described previously. […] See also, Karaman et al., “A Quantitative Analysis Of Kinase Inhibitor Selectivity”, Nat. Biotechnol. […] For most assays, kinases were fused to T7 phage strains (Fabian, supra) and for the other assays, kinases were produced in HEK-293 cells after which they were tagged with DNA for quantitative PCR detection. In general, full-length constructs were used for small, single domain kinases, and catalytic domain constructs for large multi-domain kinases. […] The liganded beads were blocked with excess biotin and washed with blocking buffer (SeaBlock (Pierce), 1% BSA, 0.05% Tween 20, 1 mM DTT) to remove unbound ligand and to reduce non-specific phage binding. […] All reactions were performed in polypropylene 384-well plates in a final volume of 0.04 ml. […] The kinase concentration in the eluates was measured by quantitative PCR. An illustration of the kinase interaction process is presented below. Kd/IC50 values were determined using a standard dose response curve using the hill equation. Curves were fitted using a non-linear least square fit with the Levenberg-Marquardt algorithm.

FLT3 = biological target: T2, FLT3 (Homo sapiens, UniProt P36888); assay type: binding; conditions: Table 4; read-out: Acute Myeloid Leukemia Kinases FLT3 IC50
T2 construct: made in house
T2 sequence (P36888 27-993): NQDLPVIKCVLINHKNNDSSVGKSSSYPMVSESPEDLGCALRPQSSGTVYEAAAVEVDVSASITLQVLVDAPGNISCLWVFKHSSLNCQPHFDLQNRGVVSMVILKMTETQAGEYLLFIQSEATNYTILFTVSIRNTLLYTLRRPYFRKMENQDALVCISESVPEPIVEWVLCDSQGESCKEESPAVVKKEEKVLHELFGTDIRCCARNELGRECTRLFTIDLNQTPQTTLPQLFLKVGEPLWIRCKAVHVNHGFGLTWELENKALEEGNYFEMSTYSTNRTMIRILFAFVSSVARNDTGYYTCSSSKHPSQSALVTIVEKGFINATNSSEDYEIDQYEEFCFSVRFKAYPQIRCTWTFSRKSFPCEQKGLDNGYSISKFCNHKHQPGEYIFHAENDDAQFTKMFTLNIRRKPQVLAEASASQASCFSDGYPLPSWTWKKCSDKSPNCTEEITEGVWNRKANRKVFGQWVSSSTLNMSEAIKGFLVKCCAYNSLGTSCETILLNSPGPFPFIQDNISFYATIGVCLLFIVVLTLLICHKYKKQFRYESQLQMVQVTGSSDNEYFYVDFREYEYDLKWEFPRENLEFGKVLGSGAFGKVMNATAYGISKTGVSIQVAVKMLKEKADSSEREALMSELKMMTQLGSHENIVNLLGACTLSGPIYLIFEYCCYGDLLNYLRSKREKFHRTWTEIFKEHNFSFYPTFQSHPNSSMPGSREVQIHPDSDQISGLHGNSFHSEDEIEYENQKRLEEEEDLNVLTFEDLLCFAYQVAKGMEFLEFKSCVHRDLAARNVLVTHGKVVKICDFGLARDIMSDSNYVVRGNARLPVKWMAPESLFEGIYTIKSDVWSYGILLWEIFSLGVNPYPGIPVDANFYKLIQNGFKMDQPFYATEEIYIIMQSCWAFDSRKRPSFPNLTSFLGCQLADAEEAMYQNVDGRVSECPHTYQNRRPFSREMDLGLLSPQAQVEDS
Method: as §2

For `COc1cc(-c2cc(=O)c3c(O)cc(O)cc3o2)ccc1O` [FBLGS-70], the IC50 (MV4-11 (Leukemia)) was 1250 nM, the “in-vivo efficacy on MV4-11 AML” value (MV4-11 AML) was “significant in-vivo efficacy” and the “toxicity or safety screen issues” value [1] was “no detectable toxicity or safety screen issues”. The IC50 [2] was greater than 100000 nM, the IC50 [3] was 1700 nM and the IC50 (Normal Bone marrow) was greater than 100000 nM.
For `COc1cc(-c2cc(=O)c3c(O)c(CC=C(C)C)c(O)cc3o2)ccc1O` [cannflavin B], the “cytotoxicity against cancer cells” value [4] is listed as “not cytotoxic”.
Work on `CO[C@@H]1[C@H](N(C)C(=O)c2ccccc2)C[C@H]2O[C@]1(C)n1c3ccccc3c3c4c(c5c6ccccc6n2c5c31)C(=O)NC4` [Midostaurin, reference compound] yielded an IC50 ([3]; Homo sapiens, MOLM-14) of 22 nM.
In the case of `COc1ccc(-c2cc(=O)c3c(O)cc(O)cc3o2)cc1` [FBLGS-73], the IC50 (FLT3(ITD)) is reported as 79 nM and 46 nM, the IC50 (FLT3) is reported as 127 nM and 152 nM and the IC50 [3] is reported as 3680 nM and 4860 nM.
